Results published in PubChem BioAssay (NCI).
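The compound was tested at five concentrations on cells cultured in 96-well plates, with a 48-hour exposure period. TGI denotes the concentration required for complete inhibition of growth.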

Columns and labels:
Assay in all cases: growth of human tumour cells (NCI), 48 h
OVCAR-5 ovarian = system: OVCAR-5 ovarian
SK-OV-3 ovarian = system: SK-OV-3 ovarian
K-562 leukemia = system: K-562 leukemia
SF-295 CNS = system: SF-295 CNS
HOP-92 NSCLC = system: HOP-92 NSCLC
MALME-3M melanoma = system: MALME-3M melanoma
HT29 colon = system: HT29 colon
UACC-257 melanoma = system: UACC-257 melanoma
RPMI-8226 leukemia = system: RPMI-8226 leukemia
KM12 colon = system: KM12 colon
UACC-62 melanoma = system: UACC-62 melanoma
M14 melanoma = system: M14 melanoma
TK-10 renal = system: TK-10 renal
OVCAR-4 ovarian = system: OVCAR-4 ovarian
HOP-62 NSCLC = system: HOP-62 NSCLC
OVCAR-3 ovarian = system: OVCAR-3 ovarian
HCT-116 colon = system: HCT-116 colon
COLO 205 colon = system: COLO 205 colon
NCI-H23 lung = system: NCI-H23 lung
A498 renal = system: A498 renal
EKVX NSCLC = system: EKVX NSCLC
SN12C renal = system: SN12C renal
SF-268 CNS = system: SF-268 CNS
SK-MEL-2 melanoma = system: SK-MEL-2 melanoma
IGROV1 ovarian = system: IGROV1 ovarian
UO-31 renal = system: UO-31 renal
A549 NSCLC = system: A549 NSCLC
HL-60(TB) leukemia = system: HL-60(TB) leukemia
LXFL 529 NSCLC = system: LXFL 529 NSCLC
OVCAR-8 ovarian = system: OVCAR-8 ovarian
CCRF-CEM leukemia = system: CCRF-CEM leukemia
NCI-H460 lung = system: NCI-H460 lung
DMS 114 small cell lung = system: DMS 114 small cell lung
NCI-H226 lung = system: NCI-H226 lung
786-0 renal = system: 786-0 renal
SNB-19 CNS = system: SNB-19 CNS
CAKI-1 renal = system: CAKI-1 renal
M19-MEL melanoma = system: M19-MEL melanoma
SNB-78 CNS = system: SNB-78 CNS
SK-MEL-28 melanoma = system: SK-MEL-28 melanoma
DLD-1 colon = system: DLD-1 colon
SNB-75 CNS = system: SNB-75 CNS
SW-620 colon = system: SW-620 colon
NCI-H522 lung = system: NCI-H522 lung
XF 498 CNS = system: XF 498 CNS
MOLT-4 leukemia = system: MOLT-4 leukemia
U251 CNS = system: U251 CNS
ACHN renal = system: ACHN renal
SR leukemia = system: SR leukemia
HCC-2998 colon = system: HCC-2998 colon
HOP-18 NSCLC = system: HOP-18 NSCLC
DMS 273 small cell lung = system: DMS 273 small cell lung
LOX IMVI melanoma = system: LOX IMVI melanoma
SF-539 CNS = system: SF-539 CNS
HCT-15 colon = system: HCT-15 colon
SK-MEL-5 melanoma = system: SK-MEL-5 melanoma
KM20L2 colon = system: KM20L2 colon

Measured: TGI

O=C1OCCC1C(O)C1c2ccccc2-c2ccccc21 (stereo not drawn)
> 100 µM: OVCAR-5 ovarian | SK-OV-3 ovarian | K-562 leukemia | SF-295 CNS | HOP-92 NSCLC | MALME-3M melanoma | HT29 colon | UACC-257 melanoma | RPMI-8226 leukemia | KM12 colon | UACC-62 melanoma | M14 melanoma | TK-10 renal | OVCAR-4 ovarian | HOP-62 NSCLC | OVCAR-3 ovarian | HCT-116 colon | COLO 205 colon | NCI-H23 lung | A498 renal | EKVX NSCLC | SN12C renal | SF-268 CNS | SK-MEL-2 melanoma | IGROV1 ovarian | UO-31 renal | A549 NSCLC | HL-60(TB) leukemia | LXFL 529 NSCLC | OVCAR-8 ovarian | CCRF-CEM leukemia | NCI-H460 lung | DMS 114 small cell lung | NCI-H226 lung | 786-0 renal | SNB-19 CNS | CAKI-1 renal | M19-MEL melanoma | SNB-78 CNS | SK-MEL-28 melanoma | DLD-1 colon | SNB-75 CNS | SW-620 colon | NCI-H522 lung | XF 498 CNS | MOLT-4 leukemia | U251 CNS | ACHN renal | SR leukemia

COc1ccc2c(c1)[n+]([O-])c(-c1ccccc1)c(N)[n+]2[O-]
44.4 µM: COLO 205 colon
71.6 µM: UACC-257 melanoma
35 µM: SK-MEL-5 melanoma
82.6 µM: XF 498 CNS
98.7 µM: LXFL 529 NSCLC
97 µM: HOP-18 NSCLC
61.7 µM: NCI-H23 lung
96.7 µM: HOP-62 NSCLC
> 100 µM: OVCAR-5 ovarian | SK-OV-3 ovarian | K-562 leukemia | SF-295 CNS | HT29 colon | RPMI-8226 leukemia | KM12 colon | UACC-62 melanoma | TK-10 renal | HCC-2998 colon | OVCAR-4 ovarian | OVCAR-3 ovarian | A498 renal | DMS 273 small cell lung | EKVX NSCLC | LOX IMVI melanoma | SN12C renal | SF-268 CNS | SK-MEL-2 melanoma | IGROV1 ovarian | SF-539 CNS | UO-31 renal | A549 NSCLC | HL-60(TB) leukemia | OVCAR-8 ovarian | CCRF-CEM leukemia | NCI-H460 lung | NCI-H226 lung | 786-0 renal | SNB-19 CNS | M19-MEL melanoma | SNB-78 CNS | DLD-1 colon | SNB-75 CNS | SW-620 colon | MOLT-4 leukemia | U251 CNS | ACHN renal | HCT-15 colon | KM20L2 colon
92.3 µM: CAKI-1 renal
78.9 µM: M14 melanoma
79.2 µM: DMS 114 small cell lung
34.4 µM: NCI-H522 lung
47.2 µM: MALME-3M melanoma
69.3 µM: SK-MEL-28 melanoma
